{"source": "paper PMC3482212", "about": "“Autoinducers Act as Biological Timers in Vibrio harveyi” (PLoS ONE, 2012)", "key": {"[1]": {"molecular_target": "T1, LuxPQ (LuxQ in interplay with LuxP) (Vibrio harveyi, UniProt P54300)", "T1 construct": "full-length wild-type LuxQ with C-terminal His6 in inverted membrane vesicles of E. coli TKR2000 (pNKQ); read-out phosphorylation of purified His6-LuxU; with Autoinducer 2 sensor kinase/phosphatase LuxQ", "T1 sequence (P54302 whole entry)": "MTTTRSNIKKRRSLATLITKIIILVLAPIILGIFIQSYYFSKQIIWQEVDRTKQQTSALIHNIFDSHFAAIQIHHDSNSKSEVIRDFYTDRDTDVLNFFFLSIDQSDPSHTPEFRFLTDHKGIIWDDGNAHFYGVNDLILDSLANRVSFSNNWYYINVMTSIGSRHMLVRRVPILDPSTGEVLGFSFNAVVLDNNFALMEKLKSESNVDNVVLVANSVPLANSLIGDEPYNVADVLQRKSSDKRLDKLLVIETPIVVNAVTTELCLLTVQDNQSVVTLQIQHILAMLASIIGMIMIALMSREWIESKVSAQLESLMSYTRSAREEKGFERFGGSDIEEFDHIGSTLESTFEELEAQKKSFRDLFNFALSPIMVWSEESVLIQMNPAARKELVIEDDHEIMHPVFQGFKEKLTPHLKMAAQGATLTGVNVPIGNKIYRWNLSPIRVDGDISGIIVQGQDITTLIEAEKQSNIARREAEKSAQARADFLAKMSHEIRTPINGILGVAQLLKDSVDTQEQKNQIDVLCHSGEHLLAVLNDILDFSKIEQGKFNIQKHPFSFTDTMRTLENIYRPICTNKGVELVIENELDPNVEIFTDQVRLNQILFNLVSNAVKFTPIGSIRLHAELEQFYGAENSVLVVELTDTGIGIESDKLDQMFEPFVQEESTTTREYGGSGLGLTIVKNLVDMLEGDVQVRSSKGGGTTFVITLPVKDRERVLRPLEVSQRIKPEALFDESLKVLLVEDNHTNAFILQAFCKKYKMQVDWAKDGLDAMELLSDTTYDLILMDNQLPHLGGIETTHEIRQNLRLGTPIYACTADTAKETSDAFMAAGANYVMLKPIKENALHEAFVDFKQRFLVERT", "T1 sequence (P54300 24-365)": "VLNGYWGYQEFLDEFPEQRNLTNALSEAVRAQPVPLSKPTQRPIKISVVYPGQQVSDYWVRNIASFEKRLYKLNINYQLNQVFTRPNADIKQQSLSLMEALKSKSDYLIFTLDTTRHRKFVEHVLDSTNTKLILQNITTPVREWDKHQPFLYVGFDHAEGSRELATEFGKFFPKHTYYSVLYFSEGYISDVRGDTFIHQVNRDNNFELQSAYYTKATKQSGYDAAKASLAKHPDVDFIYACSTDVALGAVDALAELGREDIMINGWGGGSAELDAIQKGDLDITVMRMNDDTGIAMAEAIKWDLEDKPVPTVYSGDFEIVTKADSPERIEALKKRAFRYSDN", "assay": "inhibition of LuxU phosphorylation by [gamma-32P]ATP, membrane vesicles, SDS-PAGE autoradiography", "assay_type": "biochemical", "settings": "read-out: half-maximal inhibition"}, "LuxN": {"molecular_target": "LuxN (Vibrio campbellii, UniProt A7MRY4)", "sequence (A7MRY4 whole entry)": "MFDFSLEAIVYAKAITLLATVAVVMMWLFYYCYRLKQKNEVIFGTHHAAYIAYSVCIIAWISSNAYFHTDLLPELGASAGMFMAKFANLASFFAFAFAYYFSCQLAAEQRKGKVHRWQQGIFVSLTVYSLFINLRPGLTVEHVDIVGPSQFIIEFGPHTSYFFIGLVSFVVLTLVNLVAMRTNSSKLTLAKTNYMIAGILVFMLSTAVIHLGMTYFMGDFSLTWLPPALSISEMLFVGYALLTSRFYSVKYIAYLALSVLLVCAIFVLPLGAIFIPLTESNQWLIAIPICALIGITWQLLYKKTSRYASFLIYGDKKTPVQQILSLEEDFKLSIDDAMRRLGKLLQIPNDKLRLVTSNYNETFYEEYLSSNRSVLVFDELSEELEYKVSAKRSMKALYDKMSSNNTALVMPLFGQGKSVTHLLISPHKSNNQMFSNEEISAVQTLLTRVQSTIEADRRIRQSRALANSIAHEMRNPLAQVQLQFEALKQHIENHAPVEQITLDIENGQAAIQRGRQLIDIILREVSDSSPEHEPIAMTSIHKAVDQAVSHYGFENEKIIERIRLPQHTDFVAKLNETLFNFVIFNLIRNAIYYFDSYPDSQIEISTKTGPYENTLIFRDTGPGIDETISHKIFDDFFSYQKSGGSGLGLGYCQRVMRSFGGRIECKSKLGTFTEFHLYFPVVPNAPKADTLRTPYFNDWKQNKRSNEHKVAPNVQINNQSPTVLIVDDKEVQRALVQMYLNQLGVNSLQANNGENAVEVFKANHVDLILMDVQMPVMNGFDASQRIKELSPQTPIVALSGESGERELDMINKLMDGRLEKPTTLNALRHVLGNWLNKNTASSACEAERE", "assay": "biochemical", "settings": "read-out: % inhibition at 10 μM"}}}
{"smiles": "C[C@]12OC[C@H](O)[C@@]1(O)O[B-](O)(O)O2", "note": "[AI-2]", "values": [{"measurement": "IC50", "setting": "[1]", "result": 5, "unit": "µM"}]}
{"smiles": "C[C@@H](O)CC(=O)N[C@H]1CCOC1=O", "note": "[HAI-1, N-(3-hydroxybutyryl)-homoserine lactone]", "values": [{"measurement": "inhibition at 10 µM", "setting": "LuxN", "result": 57, "unit": "%"}]}
